The values below come from ChEMBL document CHEMBL1201862, “PubChem BioAssay data set” (2004).

The structures appear in SMILES notation. The source made the active and inactive calls.

Among the targets are Cytochrome P450 2C9 (Homo sapiens, UniProt P11712); Cytochrome P450 3A4 (Homo sapiens, UniProt P08684); Cytochrome P450 2D6 (Homo sapiens, UniProt P10635).
For test [1], the target named is T1, Calpain-2 catalytic subunit (Sus scrofa, UniProt P43367).
T1 sequence (P43367 whole entry): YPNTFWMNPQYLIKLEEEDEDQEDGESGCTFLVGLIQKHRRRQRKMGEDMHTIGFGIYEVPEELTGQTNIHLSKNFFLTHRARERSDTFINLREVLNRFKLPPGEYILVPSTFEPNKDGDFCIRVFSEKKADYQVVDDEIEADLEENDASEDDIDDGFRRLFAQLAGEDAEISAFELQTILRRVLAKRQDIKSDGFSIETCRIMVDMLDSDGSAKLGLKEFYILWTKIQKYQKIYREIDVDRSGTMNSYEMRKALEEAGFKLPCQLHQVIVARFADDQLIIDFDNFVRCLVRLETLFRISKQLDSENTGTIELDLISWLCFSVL
As to the kind of experiment: pig calpain II inhibitor potency, dose response, biochemical, fluorogenic peptide substrate (AID 1420). The test is classed as functional.

Another test deals with Paired box protein Pax-8 (Homo sapiens, UniProt Q06710). Put plainly: inhibitors of PAX8-driven TPO luciferase reporter, dose response, RMG-I cells, cherry-pick (AID 687027).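 Also: luciferase reporter driven by Pax8 target thyroperoxidase promoter measured by SteadyGlo luminescence.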 The test is classed as functional, cell-based.
Test [2] can be described thus: inhibitors of SNCA 5'UTR-driven reporter translation, confirmation, H4 neuroglioma cells, luminescence (AID 1988). The test is classed as functional, cell-based.
A short description of test [3]: Luminescence Cell-Based Dose Response HTS to Identify Inhibitors of 5'UTR Stem-Loop Driven Prion Protein mRNA Translation in H4 Neuroglioblastoma Cells. [Related pubchem assays: 1827 (Project Summary), 1813 (Primary HTS)]. The class given is functional.
Test [4] can be described thus: inhibitors of firefly luciferase expression or activity, dose response, H4 neuroglioma cells, luminescence (AID 1990). The class given is functional, cell-based.
For test [5], the target named is T2, Corticotropin-releasing factor receptor 2/Corticotropin-releasing factor-binding protein (Homo sapiens, UniProt P24387+Q13324).
T2 sequence (Q13324 whole entry): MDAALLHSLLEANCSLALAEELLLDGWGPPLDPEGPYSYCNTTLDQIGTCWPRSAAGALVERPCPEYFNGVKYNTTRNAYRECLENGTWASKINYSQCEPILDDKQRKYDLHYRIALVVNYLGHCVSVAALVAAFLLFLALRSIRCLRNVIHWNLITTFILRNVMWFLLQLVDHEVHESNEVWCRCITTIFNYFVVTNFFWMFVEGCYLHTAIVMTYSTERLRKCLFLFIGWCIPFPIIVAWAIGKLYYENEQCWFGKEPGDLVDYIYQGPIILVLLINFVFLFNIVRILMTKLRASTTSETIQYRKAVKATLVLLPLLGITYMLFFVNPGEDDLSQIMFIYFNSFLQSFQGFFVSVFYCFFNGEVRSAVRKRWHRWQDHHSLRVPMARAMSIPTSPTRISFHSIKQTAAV
T2 sequence (P24387 whole entry): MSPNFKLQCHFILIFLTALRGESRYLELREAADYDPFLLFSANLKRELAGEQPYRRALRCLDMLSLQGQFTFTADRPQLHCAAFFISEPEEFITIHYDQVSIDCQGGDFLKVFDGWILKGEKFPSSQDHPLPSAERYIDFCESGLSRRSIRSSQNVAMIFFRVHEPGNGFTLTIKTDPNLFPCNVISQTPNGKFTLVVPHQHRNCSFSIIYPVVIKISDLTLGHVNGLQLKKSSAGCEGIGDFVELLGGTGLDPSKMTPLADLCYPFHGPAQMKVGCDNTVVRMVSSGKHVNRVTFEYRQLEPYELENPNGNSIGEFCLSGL
As to the kind of experiment: activators of CRF receptor 2 with binding protein – uHTS hits, confirmation (AID 602473). The test is classed as functional. To be noted: read-out: EC50_Mean.

For test [6], the target named is T2, Corticotropin-releasing factor receptor 2/Corticotropin-releasing factor-binding protein. Put plainly: Dose Response confirmation of uHTS hits for small molecule antagonists of the CRF-binding protein and CRF-R2 receptor complex. The class given is functional. The note with it: read-out: IC50_Mean.
In the next test the target is Cytochrome P450 2C19 (Homo sapiens, UniProt P33261). As to the kind of experiment: Cytochrome panel assay with activity outcomes. Panel member name: p450-cyp2c19 Compounds with AC50 equal or less than 10 uM are considered active. The test is classed as functional. To be noted: read-out: AC50.
Test [7] can be described thus: Luminescence Cell-Based Dose Response HTS to Identify Activators of Luciferase Translation or Activity in H4 […] Cells. [Related pubchem assays: 1829 (Project Summary), 1814 (Primary HTS)]. The test is classed as functional.
A further test has as its system H4. As to the kind of experiment: Luminescence Cell-Based Dose Response HTS to Identify Activators of 5'UTR Stem-Loop Driven Prion Protein mRNA Translation in H4 Neuroglioblastoma Cells. [Related pubchem assays: 1829 (Project Summary), 1814 (Primary HTS)]. To be noted: Homo sapiens. The test is classed as functional.
Test [8] is described as follows: Luminescence Cell-Based Dose Confirmation HTS to Identify Activators of 5'UTR Stem-Loop Driven Alpha-Synuclein mRNA Translation in H4 Neuroglioblastoma Cells. [Related pubchem assays: 1829 (Project Summary), 1814 (Primary HTS)]. The test is classed as functional.

Sequence of Cytochrome P450 2C19 (P33261 whole entry): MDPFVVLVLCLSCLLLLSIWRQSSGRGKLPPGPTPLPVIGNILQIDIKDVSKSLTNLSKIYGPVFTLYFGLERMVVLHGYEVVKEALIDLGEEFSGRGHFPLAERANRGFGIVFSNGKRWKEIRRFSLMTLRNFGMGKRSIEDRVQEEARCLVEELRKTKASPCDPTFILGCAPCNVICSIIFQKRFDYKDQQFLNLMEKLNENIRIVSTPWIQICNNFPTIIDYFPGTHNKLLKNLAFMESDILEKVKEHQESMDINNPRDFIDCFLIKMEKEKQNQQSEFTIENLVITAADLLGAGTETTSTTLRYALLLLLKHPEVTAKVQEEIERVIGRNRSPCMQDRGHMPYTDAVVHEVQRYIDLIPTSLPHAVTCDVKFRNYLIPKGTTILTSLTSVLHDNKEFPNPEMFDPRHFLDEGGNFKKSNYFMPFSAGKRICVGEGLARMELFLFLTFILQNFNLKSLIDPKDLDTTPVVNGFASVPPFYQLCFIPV
Sequence of Cytochrome P450 2C9 (P11712 whole entry): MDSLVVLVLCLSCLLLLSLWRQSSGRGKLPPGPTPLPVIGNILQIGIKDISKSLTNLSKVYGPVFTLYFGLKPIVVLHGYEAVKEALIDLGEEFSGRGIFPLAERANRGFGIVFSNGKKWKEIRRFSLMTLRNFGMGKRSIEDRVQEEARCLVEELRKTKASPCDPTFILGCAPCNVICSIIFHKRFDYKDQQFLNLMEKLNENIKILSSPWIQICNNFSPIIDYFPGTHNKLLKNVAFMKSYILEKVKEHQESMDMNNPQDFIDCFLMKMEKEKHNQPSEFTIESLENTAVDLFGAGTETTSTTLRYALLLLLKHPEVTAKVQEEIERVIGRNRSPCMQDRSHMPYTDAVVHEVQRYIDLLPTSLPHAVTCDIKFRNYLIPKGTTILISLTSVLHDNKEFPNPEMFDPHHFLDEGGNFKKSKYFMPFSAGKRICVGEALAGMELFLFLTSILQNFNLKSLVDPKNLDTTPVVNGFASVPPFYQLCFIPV
Sequence of Paired box protein Pax-8 (Q06710 whole entry): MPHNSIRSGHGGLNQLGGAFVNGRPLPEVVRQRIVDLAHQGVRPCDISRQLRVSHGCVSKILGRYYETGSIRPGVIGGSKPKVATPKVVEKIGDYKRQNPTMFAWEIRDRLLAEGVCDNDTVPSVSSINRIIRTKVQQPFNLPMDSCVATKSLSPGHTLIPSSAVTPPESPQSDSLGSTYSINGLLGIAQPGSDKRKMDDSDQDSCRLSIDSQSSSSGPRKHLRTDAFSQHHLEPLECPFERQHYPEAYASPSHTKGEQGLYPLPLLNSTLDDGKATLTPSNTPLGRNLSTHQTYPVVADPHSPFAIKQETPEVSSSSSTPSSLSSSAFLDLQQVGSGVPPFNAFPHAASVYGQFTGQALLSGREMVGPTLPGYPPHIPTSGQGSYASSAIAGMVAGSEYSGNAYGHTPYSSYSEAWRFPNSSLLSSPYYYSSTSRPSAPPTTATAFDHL
Sequence of Cytochrome P450 3A4 (P08684 whole entry): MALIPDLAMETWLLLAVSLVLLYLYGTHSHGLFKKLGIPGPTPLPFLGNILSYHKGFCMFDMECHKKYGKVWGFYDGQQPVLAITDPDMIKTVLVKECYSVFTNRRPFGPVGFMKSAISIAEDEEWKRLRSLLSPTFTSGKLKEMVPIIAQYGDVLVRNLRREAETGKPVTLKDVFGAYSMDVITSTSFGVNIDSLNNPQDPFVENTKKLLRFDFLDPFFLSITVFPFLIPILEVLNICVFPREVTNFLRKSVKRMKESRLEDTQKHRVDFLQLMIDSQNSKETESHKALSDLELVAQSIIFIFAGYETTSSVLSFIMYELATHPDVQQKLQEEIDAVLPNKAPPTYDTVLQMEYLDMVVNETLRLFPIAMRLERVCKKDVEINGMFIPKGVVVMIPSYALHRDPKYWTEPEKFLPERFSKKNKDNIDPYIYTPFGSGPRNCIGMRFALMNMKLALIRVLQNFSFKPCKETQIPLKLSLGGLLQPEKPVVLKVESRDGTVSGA
Sequence of Cytochrome P450 2D6 (P10635 whole entry): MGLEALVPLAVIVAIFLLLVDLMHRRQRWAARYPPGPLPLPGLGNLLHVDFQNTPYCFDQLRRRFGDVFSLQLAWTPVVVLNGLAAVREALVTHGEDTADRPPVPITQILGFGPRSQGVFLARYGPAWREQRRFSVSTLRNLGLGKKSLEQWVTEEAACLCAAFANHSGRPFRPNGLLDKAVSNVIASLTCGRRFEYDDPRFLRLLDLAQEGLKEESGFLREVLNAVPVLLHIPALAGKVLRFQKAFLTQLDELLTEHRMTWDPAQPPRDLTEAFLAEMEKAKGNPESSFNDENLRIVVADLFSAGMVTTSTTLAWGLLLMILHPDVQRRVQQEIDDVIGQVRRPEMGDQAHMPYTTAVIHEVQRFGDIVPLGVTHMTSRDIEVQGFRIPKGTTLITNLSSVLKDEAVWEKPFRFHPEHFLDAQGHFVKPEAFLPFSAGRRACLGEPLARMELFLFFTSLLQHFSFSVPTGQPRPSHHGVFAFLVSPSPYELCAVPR

In the case of `O=C(CCn1c(=O)[nH]c2ccsc2c1=O)NCc1ccc(F)cc1`, the IC50 in [1] was < 0.4 µM (not active).

Take `O=C(OCC(=O)N1CCN(C(=O)c2ccco2)CC1)c1cccc(S(=O)(=O)N2CCc3ccccc32)c1`: on Paired box protein Pax-8, the AC50 was 1.38 µM (active).

With `O=C1C2CCCCC2C(=O)N1c1ccc(NC2CCCCC2)c([N+](=O)[O-])c1` (stereo unspecified), in [1], the IC50 is 4.65 µM (active).

In the case of `COC(=O)c1nn(-c2ccccc2)c(-c2ccccc2)c1C(=O)c1ccccc1`, the EC50 in [2], in [3] and in test [4] was > 120 µM (not active) throughout. Besides, the AC50 on Cytochrome P450 2C9 is 15.8 µM (inconclusive); at Cytochrome P450 3A4, 14.1 µM (inconclusive).

As for `Cc1ccc(Sc2c(C=O)c3ccccc3n2C)cc1`, the EC50 in test [5] was > 53 µM (inactive). In addition, the IC50 in test [6] was > 47.1 µM (inactive).

Take `Cc1ccc(O)c(-c2cc(C(F)(F)C(F)F)nc(-c3ccccc3)n2)c1`: the AC50 at Cytochrome P450 2C19 was 14.1 µM (inconclusive); on Cytochrome P450 2C9 it was 7.08 µM (inconclusive); at Cytochrome P450 3A4 it was 8.91 µM (inconclusive).

As to `O=C(Nc1cccc2ncccc12)c1ccc(-c2ccc(Br)cc2)o1`, the half-maximal activity concentration (AC50) at Cytochrome P450 2C9 is 0.282 µM (inconclusive); on Cytochrome P450 2D6, 12.6 µM (inconclusive).

In the case of `Cc1ccc(NC(=O)/C(=C\c2cccnc2)NC(=O)c2ccco2)cc1`, the AC50 on Cytochrome P450 2C19 was 35.5 µM (inconclusive); at Cytochrome P450 2C9, 20 µM (inconclusive).

For the compound `CCOCCCNC(=O)C1CCC(CNS(=O)(=O)c2ccc(Cl)cc2)CC1` (stereo unspecified), the IC50 in test [1] is listed as > 50 µM (not active).

For `O=C1c2ccc3c4c(ccc(c24)C(=O)N1c1ccc2ccccc2c1)CC3`, the results for the EC50 in test [2], in test [3] and in test [4] were 119 µM (active), 36.6 µM (active) and 11.6 µM (active), respectively. The concentration at half-maximal activity (AC50) at Cytochrome P450 2C19 was 2.24 µM (inconclusive); on Cytochrome P450 2C9, 3.98 µM (inconclusive).

Turning to `Cc1ccc(NC(=O)CSC2=C(C#N)C(c3ccco3)CC(=O)N2)cc1` (stereo unspecified), the EC50 in test [7] is 12.4 µM (active); in test [5] it was > 53 µM (inactive); in the test with H4, 16.1 µM (active); in test [8] it was 0.908 µM (active). Besides, in [6], the IC50 was > 47.1 µM (inactive).

Consider `COC(=O)C1CC(Cl)CN1c1ncc(C(F)(F)F)cc1Cl` (stereo unspecified), for which the EC50 in test [5] was > 53 µM (inactive). Also, the IC50 in [6] was > 47.1 µM (inactive).

Consider `Cc1ccc(-c2nc(N)sc2-c2ccc(C)cc2)cc1`, for which, in test [1], the IC50 is given as 3.19 µM (not active).

As for `OC(CNCc1ccc(Cl)cc1)(c1ccccc1)c1ccc(F)cc1` (stereo unspecified), the IC50 in test [1] is 12.1 µM (not active).

For the compound `CCOC(=O)c1cnn(CCOC(=O)c2cccc(F)c2)c1NC(=O)c1cccc(F)c1`, the half-maximal activity concentration (AC50) at Paired box protein Pax-8 was 20 µM (active).

On to `Cc1ccc(CNC(=O)CCCCCNc2nc(S)nc3ccccc23)cc1`, for which the IC50 in test [1] is 24.8 µM (not active).

`CC(C)(C)n1nc2c(c1NC(=O)Cc1ccccc1)CS(=O)(=O)C2`: the EC50 in test [5] is > 53 µM (inactive). Further, the IC50 in [6] is > 47.1 µM (inactive).

Consider `Cc1cccc2cc(C#N)c(N3CCN(C)CC3)nc12`, for which, in test [5], the EC50 is > 53 µM (inactive). For the same compound, in [6], the IC50 was > 47.1 µM (inactive).

In the case of `CCCOC(=O)Nc1cc(OC)ccc1[N+](=O)[O-]`, the IC50 in [1] is 8.71 µM (not active).

Take `Cn1cc(C(=O)c2ccccc2)c2ccccc21`: the EC50 in test [5] was > 53 µM (inactive). Besides, the IC50 in test [6] was > 47.1 µM (inactive).

What is called AC50 is the midpoint of the concentration-response curve, whichever way the signal moves.
